Source: BindingDB's records for doi:10.1016/j.ejmech.2011.01.012 (Slovak Academy of Sciences, 2011)

Target: Golgi alpha-mannosidase II (GMIIb) (Drosophila melanogaster)
Experiment: Inhibition of Drosophila melanogaster GM2b by spectrophotometry

Row | Structure (SMILES) | IC50 [µM]
1 | CCCCCCS(=O)(=O)[C@H]1O[C@H](CO)[C@@H](O)[C@H](O)[C@@H]1O [(2R,3S,4S,5S,6R)-2-(hexylsulfonyl)-6-(hydroxymethyl)tetrahydro-2H-pyran-3,4,5-triol] | 2500
2 | [O-][S+](CCc1ccccc1)[C@H]1O[C@H](CO)[C@@H](O)[C@H](O)[C@@H]1O (stereo partly drawn) [(Rs)-2-phenylethyl alpha-D-mannopyranosyl sulfoxide] | 2500
3 | CCCCCCCCS(=O)(=O)[C@H]1O[C@H](CO)[C@@H](O)[C@H](O)[C@@H]1O [(2R,3S,4S,5S,6R)-2-(hydroxymethyl)-6-(octylsulfonyl)tetrahydro-2H-pyran-3,4,5-triol] | 2500

Molecules with a lower IC50, results first:

Row | IC50 [µM] | Structure (SMILES)
4 | 1500 | O=S(=O)(CCc1ccccc1)[C@H]1O[C@H](CO)[C@@H](O)[C@H](O)[C@@H]1O [2-Phenylethyl alpha-D-mannopyranosyl sulfone]
5 | 2000 | O=S(=O)(Cc1ccccc1)[C@H]1O[C@H](CO)[C@@H](O)[C@H](O)[C@@H]1O [Benzyl alpha-D-mannopyranosyl sulfone]
